Measured values: PubChem BioAssay (NCI)
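Where inhibition never reached the appropriate level, the endpoint shown equals the highest concentration tested. Otherwise, values were interpolated linearly from a five-concentration, 48-hour dose response in 96-well plates. Abbreviation: GI50, concentration required for 50% inhibition of growth. Definition used: TGI = concentration required for complete inhibition of growth.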

How the values were obtained:
Test in all cases: NCI anticancer screen, dose series, 48 h
[1] = tested on: KM12 colon
[2] = tested on: UACC-62 melanoma
[3] = tested on: IGROV1 ovarian
[4] = tested on: PC-3 prostate
[5] = tested on: RXF 393 renal
[6] = tested on: HS 578T breast
[7] = tested on: OVCAR-3 ovarian
[8] = tested on: SK-MEL-5 melanoma
[9] = tested on: UO-31 renal
[10] = tested on: ACHN renal
[11] = tested on: SK-MEL-28 melanoma
[12] = tested on: MDA-MB-231 breast
[13] = tested on: NCI-H460 lung
[14] = tested on: HOP-62 NSCLC
[15] = tested on: RPMI-8226 leukemia
[16] = tested on: HCT-116 colon
[17] = tested on: DU-145 prostate
[18] = tested on: CAKI-1 renal
[19] = tested on: U251 CNS
[20] = tested on: MOLT-4 leukemia
[21] = tested on: HCC-2998 colon
[22] = tested on: SK-MEL-2 melanoma
[23] = tested on: OVCAR-4 ovarian
[24] = tested on: SF-295 CNS
[25] = tested on: MDA-MB-435
[26] = tested on: NCI-H23 lung
[27] = tested on: NCI-H522 lung
[28] = tested on: A498 renal
[29] = tested on: SW-620 colon
[30] = tested on: OVCAR-5 ovarian
[31] = tested on: TK-10 renal
[32] = tested on: A549 NSCLC
[33] = tested on: MCF7 breast
[34] = tested on: CCRF-CEM leukemia
[35] = tested on: T-47D breast
[36] = tested on: K-562 leukemia
[37] = tested on: UACC-257 melanoma
[38] = tested on: HCT-15 colon
[39] = tested on: BT-549 breast
[40] = tested on: LOX IMVI melanoma
[41] = tested on: COLO 205 colon
[42] = tested on: SNB-19 CNS
[43] = tested on: SK-OV-3 ovarian
[44] = tested on: SF-539 CNS
[45] = tested on: SNB-75 CNS
[46] = tested on: EKVX NSCLC
[47] = tested on: 786-0 renal
[48] = tested on: NCI-H226 lung
[49] = tested on: M14 melanoma
[50] = tested on: HT29 colon
[51] = tested on: SF-268 CNS
[52] = tested on: OVCAR-8 ovarian
[53] = tested on: SN12C renal
[54] = tested on: HOP-92 NSCLC
[55] = tested on: HL-60(TB) leukemia
[56] = tested on: NCI/ADR-RES ovarian

SMILES: Nc1c([N+](=O)[O-])ncn1C1OC(CO)C(O)C1O (stereo unspecified)
- GI50 [1]: > 100 µM
- TGI [1]: > 100 µM
- GI50 [2]: > 100 µM
- TGI [2]: > 100 µM
- GI50 [3]: > 100 µM
- TGI [3]: > 100 µM
- GI50 [4]: > 100 µM
- TGI [4]: > 100 µM
- GI50 [5]: > 100 µM
- TGI [5]: > 100 µM
- GI50 [6]: > 100 µM
- TGI [6]: > 100 µM
- GI50 [7]: > 100 µM
- TGI [7]: > 100 µM
- GI50 [8]: > 100 µM
- TGI [8]: > 100 µM
- GI50 [9]: > 100 µM
- TGI [9]: > 100 µM
- GI50 [10]: > 100 µM
- TGI [10]: > 100 µM
- GI50 [11]: > 100 µM
- TGI [11]: > 100 µM
- GI50 [12]: > 100 µM
- TGI [12]: > 100 µM
- GI50 [13]: > 100 µM
- TGI [13]: > 100 µM
- GI50 [14]: > 100 µM
- TGI [14]: > 100 µM
- GI50 [15]: > 100 µM
- TGI [15]: > 100 µM
- GI50 [16]: > 100 µM
- TGI [16]: > 100 µM
- GI50 [17]: > 100 µM
- TGI [17]: > 100 µM
- GI50 [18]: > 100 µM
- TGI [18]: > 100 µM
- GI50 [19]: > 100 µM
- TGI [19]: > 100 µM
- GI50 [20]: > 100 µM
- TGI [20]: > 100 µM
- GI50 [21]: > 100 µM
- TGI [21]: > 100 µM
- GI50 [22]: > 100 µM
- TGI [22]: > 100 µM
- GI50 [23]: > 100 µM
- TGI [23]: > 100 µM
- GI50 [24]: > 100 µM
- TGI [24]: > 100 µM
- GI50 [25]: > 100 µM
- TGI [25]: > 100 µM
- GI50 [26]: > 100 µM
- TGI [26]: > 100 µM
- GI50 [27]: > 100 µM
- TGI [27]: > 100 µM
- GI50 [28]: > 100 µM
- TGI [28]: > 100 µM
- GI50 [29]: > 100 µM
- TGI [29]: > 100 µM
- GI50 [30]: > 100 µM
- TGI [30]: > 100 µM
- GI50 [31]: > 100 µM
- TGI [31]: > 100 µM
- GI50 [32]: > 100 µM
- TGI [32]: > 100 µM
- GI50 [33]: > 100 µM
- TGI [33]: > 100 µM
- GI50 [34]: > 100 µM
- TGI [34]: > 100 µM
- GI50 [35]: > 100 µM
- TGI [35]: > 100 µM
- GI50 [36]: > 100 µM
- TGI [36]: > 100 µM
- GI50 [37]: > 100 µM
- TGI [37]: > 100 µM
- GI50 [38]: > 100 µM
- TGI [38]: > 100 µM
- GI50 [39]: > 100 µM
- TGI [39]: > 100 µM
- GI50 [40]: > 100 µM
- TGI [40]: > 100 µM
- GI50 [41]: > 100 µM
- TGI [41]: > 100 µM
- GI50 [42]: > 100 µM
- TGI [42]: > 100 µM
- GI50 [43]: > 100 µM
- TGI [43]: > 100 µM
- GI50 [44]: > 100 µM
- TGI [44]: > 100 µM
- GI50 [45]: > 100 µM
- TGI [45]: > 100 µM
- GI50 [46]: > 100 µM
- TGI [46]: > 100 µM
- GI50 [47]: > 100 µM
- TGI [47]: > 100 µM
- GI50 [48]: > 100 µM
- TGI [48]: > 100 µM
- GI50 [49]: > 100 µM
- TGI [49]: > 100 µM
- GI50 [50]: > 100 µM
- TGI [50]: > 100 µM
- GI50 [51]: > 100 µM
- TGI [51]: > 100 µM
- GI50 [52]: > 100 µM
- TGI [52]: > 100 µM
- GI50 [53]: > 100 µM
- TGI [53]: > 100 µM

SMILES: CCOC(=O)CSc1nc(-c2ccc(Cl)cc2)c(C#N)c(=O)[nH]1
- TGI [1]: > 100 µM
- TGI [2]: > 100 µM
- TGI [3]: > 100 µM
- TGI [4]: > 100 µM
- TGI [5]: > 100 µM
- TGI [54]: > 100 µM
- TGI [6]: > 100 µM
- TGI [7]: > 100 µM
- TGI [8]: > 100 µM
- TGI [9]: > 100 µM
- TGI [10]: > 100 µM
- TGI [55]: 71.9 µM
- TGI [11]: > 100 µM
- TGI [12]: > 100 µM
- TGI [13]: > 100 µM
- TGI [14]: > 100 µM
- TGI [56]: > 100 µM
- TGI [15]: > 100 µM
- TGI [16]: > 100 µM
- TGI [17]: > 100 µM
- TGI [18]: > 100 µM
- TGI [19]: > 100 µM
- TGI [20]: > 100 µM
- TGI [21]: > 100 µM
- TGI [22]: > 100 µM
- TGI [23]: > 100 µM
- TGI [24]: > 100 µM
- TGI [25]: > 100 µM
- TGI [26]: > 100 µM
- TGI [27]: > 100 µM
- TGI [28]: > 100 µM
- TGI [29]: > 100 µM
- TGI [30]: > 100 µM
- TGI [31]: > 100 µM
- TGI [32]: > 100 µM
- TGI [33]: > 100 µM
- TGI [34]: 89 µM
- TGI [35]: > 100 µM
- TGI [36]: > 100 µM
- TGI [37]: > 100 µM
- TGI [38]: > 100 µM
- TGI [39]: > 100 µM
- TGI [41]: > 100 µM
- TGI [42]: > 100 µM
- TGI [43]: > 100 µM
- TGI [44]: > 100 µM
- TGI [45]: > 100 µM
- TGI [46]: > 100 µM
- TGI [47]: > 100 µM
- TGI [48]: > 100 µM
- TGI [49]: > 100 µM
- TGI [50]: > 100 µM
- TGI [51]: > 100 µM
- TGI [52]: > 100 µM
- TGI [53]: > 100 µM
